Experimental data published in ChEMBL document CHEMBL4417621, “Methods to identify tas2r modulators” (2013).
The source made the active and inactive calls. No cut-off for these calls is given here.

What was measured:
[1] = molecular target: T1, Taste receptor type 2 member 31 (Homo sapiens) (UniProt P59538); experiment: Activation of full-length human TAS2R44 expressed in HEK293T/Galpha16-gustducin 44 cells assessed as effect on calcium flux by measuring deltaF/F0 ratio at 25 mM by Fluo-4 dye based FLIPR assay (reference value: […] +/ - 0.017); assay type: functional, cell-based
T1 sequence (whole entry): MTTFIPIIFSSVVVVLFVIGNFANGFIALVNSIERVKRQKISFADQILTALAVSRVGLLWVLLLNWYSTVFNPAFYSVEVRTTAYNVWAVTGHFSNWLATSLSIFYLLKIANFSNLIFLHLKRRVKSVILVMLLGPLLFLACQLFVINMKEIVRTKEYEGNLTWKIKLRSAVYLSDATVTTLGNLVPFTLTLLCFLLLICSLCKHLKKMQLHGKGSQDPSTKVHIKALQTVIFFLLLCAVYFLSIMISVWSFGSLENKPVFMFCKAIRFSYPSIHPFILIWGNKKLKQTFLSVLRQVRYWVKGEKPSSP

[2] = molecular target: T1, Taste receptor type 2 member 31 (Homo sapiens); experiment: Activation of full-length human TAS2R44 expressed in HEK293T/Galpha16-gustducin 44 cells assessed as effect on calcium flux by measuring deltaF/F0 ratio at 12.5 mM by Fluo-4 dye based FLIPR assay (reference value: […] +/ - 0.014); assay type: functional, cell-based
[3] = molecular target: T1, Taste receptor type 2 member 31 (Homo sapiens); experiment: Activation of full-length human TAS2R44 expressed in HEK293T/Galpha16-gustducin 44 cells assessed as effect on calcium flux by measuring deltaF/F0 ratio at 3.125 mM by Fluo-4 dye based FLIPR assay (reference value: […] +/ - 0.001); assay type: functional, cell-based
[4] = molecular target: T1, Taste receptor type 2 member 31 (Homo sapiens); experiment: Activation of full-length human TAS2R44 expressed in HEK293T/Galpha16-gustducin 44 cells assessed as effect on calcium flux by measuring deltaF/F0 ratio at 1.5625 mM by Fluo-4 dye based FLIPR assay (reference value: 0.017 +/ - 0.008); assay type: functional, cell-based
[5] = molecular target: T2, Taste receptor type 2 member 1 (Homo sapiens) (UniProt Q9NYW7); experiment: Activation of full-length human TAS2R1 expressed in HEK293T/Galpha16-gustducin 44 cells assessed as effect on calcium flux by measuring deltaF/F0 ratio at 100 mM by Fluo-4 dye based FLIPR assay; assay type: functional, cell-based
T2 sequence (whole entry): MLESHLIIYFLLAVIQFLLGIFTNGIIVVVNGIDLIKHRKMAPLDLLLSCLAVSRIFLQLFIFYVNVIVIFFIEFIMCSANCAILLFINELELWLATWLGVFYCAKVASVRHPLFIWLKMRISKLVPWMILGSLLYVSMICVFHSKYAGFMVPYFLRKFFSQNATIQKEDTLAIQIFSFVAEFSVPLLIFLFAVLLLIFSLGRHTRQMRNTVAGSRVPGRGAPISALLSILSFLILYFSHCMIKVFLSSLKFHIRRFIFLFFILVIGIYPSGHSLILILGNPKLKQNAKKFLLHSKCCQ

[6] = molecular target: T2, Taste receptor type 2 member 1 (Homo sapiens); experiment: Activation of full-length human TAS2R1 expressed in HEK293T/Galpha16-gustducin 44 cells assessed as effect on calcium flux by measuring deltaF/F0 ratio at 25 mM by Fluo-4 dye based FLIPR assay; assay type: functional, cell-based
[7] = molecular target: T2, Taste receptor type 2 member 1 (Homo sapiens); experiment: Activation of full-length human TAS2R1 expressed in HEK293T/Galpha16-gustducin 44 cells assessed as effect on calcium flux by measuring deltaF/F0 ratio at 12.5 mM by Fluo-4 dye based FLIPR assay; assay type: functional, cell-based
[8] = molecular target: T2, Taste receptor type 2 member 1 (Homo sapiens); experiment: Activation of full-length human TAS2R1 expressed in HEK293T/Galpha16-gustducin 44 cells assessed as effect on calcium flux by measuring deltaF/F0 ratio at 3.125 mM by Fluo-4 dye based FLIPR assay; assay type: functional, cell-based
[9] = molecular target: T2, Taste receptor type 2 member 1 (Homo sapiens); experiment: Activation of full-length human TAS2R1 expressed in HEK293T/Galpha16-gustducin 44 cells assessed as effect on calcium flux by measuring deltaF/F0 ratio at 0.3906 mM by Fluo-4 dye based FLIPR assay; assay type: functional, cell-based
[10] = molecular target: T3, Taste receptor type 2 member 10 (Homo sapiens) (UniProt Q9NYW0); experiment: Activation of full-length human TAS2R10 expressed in HEK293T/Galpha16-gustducin 44 cells assessed as effect on calcium flux by measuring deltaF/F0 ratio at 12.5 mM by Fluo-4 dye based FLIPR assay; assay type: functional, cell-based
T3 sequence (whole entry): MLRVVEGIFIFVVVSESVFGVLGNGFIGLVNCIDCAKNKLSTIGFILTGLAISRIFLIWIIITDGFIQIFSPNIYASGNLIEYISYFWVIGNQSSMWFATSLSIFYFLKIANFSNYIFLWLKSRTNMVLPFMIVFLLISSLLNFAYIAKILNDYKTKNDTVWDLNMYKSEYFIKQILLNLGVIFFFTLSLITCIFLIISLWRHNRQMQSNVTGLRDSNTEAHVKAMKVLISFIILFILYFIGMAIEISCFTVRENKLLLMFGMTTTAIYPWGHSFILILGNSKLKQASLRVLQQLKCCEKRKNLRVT

[11] = molecular target: T3, Taste receptor type 2 member 10 (Homo sapiens); experiment: Activation of full-length human TAS2R10 expressed in HEK293T/Galpha16-gustducin 44 cells assessed as effect on calcium flux by measuring deltaF/F0 ratio at 3.125 mM by Fluo-4 dye based FLIPR assay; assay type: functional, cell-based
[12] = molecular target: T3, Taste receptor type 2 member 10 (Homo sapiens); experiment: Activation of full-length human TAS2R10 expressed in HEK293T/Galpha16-gustducin 44 cells assessed as effect on calcium flux by measuring deltaF/F0 ratio at 1.5625 mM by Fluo-4 dye based FLIPR assay; assay type: functional, cell-based
[13] = molecular target: T4, Taste receptor type 2 member 46 (Homo sapiens) (UniProt P59540); experiment: Activation of full-length human TAS2R46 expressed in HEK293T/Galpha16-gustducin 44 cells assessed as effect on calcium flux by measuring deltaF/F0 ratio at 50 mM by Fluo-4 dye based FLIPR assay; assay type: functional, cell-based
T4 sequence (whole entry): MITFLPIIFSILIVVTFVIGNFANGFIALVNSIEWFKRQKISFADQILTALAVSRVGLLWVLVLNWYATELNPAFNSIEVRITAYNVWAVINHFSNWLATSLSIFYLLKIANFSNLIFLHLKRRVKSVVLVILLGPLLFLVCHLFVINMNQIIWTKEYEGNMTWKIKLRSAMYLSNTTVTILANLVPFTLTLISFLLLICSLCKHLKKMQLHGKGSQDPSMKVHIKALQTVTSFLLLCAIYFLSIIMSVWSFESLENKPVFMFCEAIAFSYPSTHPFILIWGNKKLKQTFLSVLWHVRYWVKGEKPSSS

[14] = molecular target: T4, Taste receptor type 2 member 46 (Homo sapiens); experiment: Activation of full-length human TAS2R46 expressed in HEK293T/Galpha16-gustducin 44 cells assessed as effect on calcium flux by measuring deltaF/F0 ratio at 1.5625 mM by Fluo-4 dye based FLIPR assay; assay type: functional, cell-based
[15] = molecular target: T4, Taste receptor type 2 member 46 (Homo sapiens); experiment: Activation of full-length human TAS2R46 expressed in HEK293T/Galpha16-gustducin 44 cells assessed as effect on calcium flux by measuring deltaF/F0 ratio at 0.3906 mM by Fluo-4 dye based FLIPR assay; assay type: functional, cell-based
Homo sapiens = species: Homo sapiens; experiment: Induction of bitter sensitivity in bitter sensitive human panelists tasting solution containing 3 mM compound in absence of 13 ppm (E)-4-(2,2,3-trimethylcyclopent-3-enyl)but-2-enoic acid; assay type: functional, organism-based

- Ratio [1]: 0.197
- Ratio [2]: 0.109
- Ratio [3]: 0.043
- Ratio [4]: 0.026
- Ratio [5]: 0.518
- Ratio [6]: 0.104
- Ratio [7]: 0.072
- Ratio [8]: 0.059
- Ratio [9]: 0.052
- Ratio [10]: 0.059
- Ratio [11]: 0.053
- Ratio [12]: 0.047
- Ratio [13]: 0.171
- Ratio [14]: 0.035
- Ratio [15]: 0.041
SMILES: OC[C@H]1O[C@H](O[C@]2(CCl)O[C@H](CCl)[C@@H](O)[C@@H]2O)[C@H](O)[C@@H](O)[C@H]1Cl [SUCRALOSE]
- Activity (Homo sapiens): Active
